Data as given in patent publication US20110098180A1, “Herbicide-Resistant Plants, And Polynucleotides And Methods For Providing Same” (United States Department of Agriculture, priority 2002, published 2011).

Tests used:
[1] = target: T1, maize PDS Arg→His at position 292 (Zea mays, UniProt P49086, R292H); assay: Mutant maize PDS enzyme resistance test; assay type: biochemical
T1 construct: vector-encoded N-terminal residues of pBluescript SK+ (in-frame fusion); made in house; host or cells: E. coli TOP10 (clone pMPDS3-33 from E. T. Wurtzel, mutagenised in house)
T1 sequence (P49086 97-571 R292H): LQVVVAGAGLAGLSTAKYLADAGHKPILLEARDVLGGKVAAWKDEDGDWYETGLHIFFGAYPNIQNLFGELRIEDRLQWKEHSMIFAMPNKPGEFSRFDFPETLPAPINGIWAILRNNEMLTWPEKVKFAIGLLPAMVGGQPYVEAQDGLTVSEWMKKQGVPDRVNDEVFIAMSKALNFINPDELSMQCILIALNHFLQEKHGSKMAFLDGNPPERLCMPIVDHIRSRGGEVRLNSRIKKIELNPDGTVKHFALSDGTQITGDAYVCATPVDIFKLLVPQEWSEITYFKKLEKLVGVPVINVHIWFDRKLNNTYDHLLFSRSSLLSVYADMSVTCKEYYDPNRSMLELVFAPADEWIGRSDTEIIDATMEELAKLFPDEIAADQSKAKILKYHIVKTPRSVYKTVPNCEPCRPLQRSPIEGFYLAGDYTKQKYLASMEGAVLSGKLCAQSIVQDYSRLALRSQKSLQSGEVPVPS
From the text: The same mutagenesis procedure as described in the Examples above was used to convert the same key arginine amino acid (position 292, sequence ID No. 6) to histidine in corn PDS. Mutagenesis primers are listed below. A maize cDNA clone of PDS, that actively expressed PDS (basically sequence U37285 ligated in frame into pBluescript SK^+ and cloned in TOP10-cells) was provided by Eleanore T. Wurtzel, N Y (pMPDS3-33 as described in Z H Li, P D Matthews, B Burr & E T Wurtzel: Cloning and characterization of a maize cDNA encoding phytoene desaturase, an enzyme of the carotenoid biosynthetic pathway. Plant Molecular Biology 30: 269-279, 1996).
The resulting mutant maize PDS polynucleotide and protein were tested generally as described in Example 5 above. The mutant maize PDS enzyme ehxibited 50-fold to 60-fold resistance factor as compared to the wild type maize PDS enzyme.

[2] = system: Hydrilla PDS Arg^304 → Isoleucine; assay: Fluridone enzyme inhibition assay, non-His-tagged PDS (Table 1); assay type: biochemical, Hydrilla verticillata; conditions: relative to Arginine
Experimental: (§1) The expression constructs in Table 1 were derived from an original clone of the susceptible PDS gene from Hydrilla and then the Arg^304 was mutated to the listed amino acid. Expression was under the control of the lac promoter […] with the initiation codon of the LacZalpha-ccdB gene in the pCR4-TOPO vector (Invitrogen Inc., CA, Cat. #K4575-01).
(§2) All mutagenesis was performed, unless stated otherwise, using the TOPO-vector containing the wildtype (H4) PDS-sequence, which was extracted from an overnight culture with the Qiagen Plasmid Prep Kit as described above. The amount of the extracted plasmid was diluted to 10 ng/μl and used as template in a mutagenesis-procedure using the QuikChange Site-directed Mutagenesis Kit (Stratagene, Calif., #200518). The design of the mutagenesis-primers was conducted according to the manufacturers protocol to enable the specific change of Arg^304-codon to code for the desired amino acid. Primers (purchased from MWG-Biotech) and their introduced amino acid change are listed below with the changed codon underlined:
(§3) The reactions were performed according to the manufacturers protocol. Reactions were set up in MicroAmp-tubes on ice with 38 μl ddH2O, 5 μl 10× reaction buffer, 2 μl plasmid (10 ng/μl), 1.25 μl forward-mutagenesis primer (100 ng/μl), 1.25 μl of reverse mutagenesis primer (100 ng/μl), 1 μl dNTP-mix and 1 μl PfuTurboDNA polymerase (2.5 U/μl). The reactions were placed in a PE 9700 thermal cycler and heated to 95° C. for 30 sec followed by 12 rounds at 95° C. for 30 sec, 55° C. for 1 min and 68° C. for 12 min. The PCR was followed by a DpnI-digestion and transformation in XL1-Blue supercompetent cells as described in the manual. 4-6 resulting colonies were grown overnight in LB-medium with kanamycin and plasmid DNA was isolated as described above. The plasmid was used as template for sequencing with M13 and internal PDS-primers as described above on a LiCOR-system. Sequences were assembled and analyzed using Seqman. Introduced mutations were identified and plasmids carrying the desired mutation(s) were transferred into competent TOP10-cells, using the transformation protocol from the TOPO TA Cloning Kit. Resulting colonies were grown overnight in Wu-broth with kanamycin, aliquoted and stored at −80° C. until further use. 1 ml of Wu-cultures was used to start 1-L LB-cultures with kanamycin as described before, to express active PDS-enzyme for testing as described.
(§4) Phytoene desaturase activity and its inhibition by herbicides was determined using an in vitro system using components derived from the in vivo production of phytoene and phytoene desaturase proteins. All mutations described in Examples 3 and 4 were tested. […] The clones were used for the heterologous expression of Hydrilla-PDS-enzyme. In particular, bacterial cultures were grown from single colonies overnight in Wu-broth (6.27 g/L K2HPO4, 1.8 g/L KH2PO4, 0.5 g/L Na-citrate, 0.9 g/L (NH4)2SO4, 10 g/L tryptone, 5 g/L yeast extract, 10 g/L NaCl, 44 ml/L glycerol, 0.1 mM MgSO4, pH 7.2) with kanamycin. 1-mL was aliquoted in centrifuge tube and stored at −80° C. For expression, 1 L LB-medium with kanamycin was inoculated with 1-mL Wu-culture and grown for 24 h at 37° C. to stationary phase with shaking at 200 rpm. The cells were collected by centrifugation at 2000×g. All of the following steps were done at 4° C. unless otherwise noted. Active soluble PDS enzyme was extracted by lysing the transformed E. coli cells using a French Press at 20,000 psi in assay buffer consisting of 100 mM Tris-HCl, pH 7.2, 10 mM magnesium-chloride, 0.1 mM NADP, 0.1 mM FAD, 10 mM cysteine, 5 mM DTT, 1 mM aminocaproic acid, and 1 μg/ml leupeptin. The soluble fraction containing PDS activity was obtained by centrifugation for 10 min at 1200×g. After 24 h they were centrifuged down and used in PDS enzyme activity assays as described below.

[3] = system: Hydrilla PDS Arg^304 → Lysine; assay: as above; assay type: biochemical, Hydrilla verticillata; conditions: relative to Arginine
Experimental: as §1, §2, §3, §4

[4] = system: Hydrilla PDS Arg^304 → Phenyalanine; assay: as above; assay type: biochemical, Hydrilla verticillata; conditions: relative to Arginine
Experimental: as §1, §2, §3, §4

[5] = system: Hydrilla PDS Arg^304 → Aspartic acid; assay: as above; assay type: biochemical, Hydrilla verticillata; conditions: relative to Arginine
Experimental: as §1, §2, §3, §4

[6] = system: Hydrilla PDS Arg^304 → Tyrosine; assay: as above; assay type: biochemical, Hydrilla verticillata; conditions: relative to Arginine
Experimental: as §1, §2, §3, §4

[7] = system: Synechocystis PDS with mutation corresponding to Leu^542→Arg; conditions: prior work; cited from earlier work

Fluridone
resistance of modified maize PDS enzyme vs wild-type maize PDS enzyme [1]: substantially more resistant
R/S [2]: 10
R/S [3]: 5
R/S [4]: 2.6
R/S [5]: 10
R/S [6]: 4
resistance provided by the mutation [7]: failed to provide resistance
